Test results as given in patent US6632921B1, “Seryl-lysyl-based peptide and peptidomimetic inhibitors of N-myristoyl transferase as anti-infective agents” (G. D Searle & Co, priority 1995, dated 2003).
Read-outs that look alike come from different tables or passages of the source.

Assays:
[1] = target: T1, Candida albicans NMT (Candida albicans, UniProt P30418); test: NMT enzyme inhibition assay (radiochemical HPLC end-point), Candida NMT; format: biochemical; settings: for IC50: read-out: IC50 caNMT
T1 construct: made in house; host or cells: E. coli
T1 sequence (P30418 1-451): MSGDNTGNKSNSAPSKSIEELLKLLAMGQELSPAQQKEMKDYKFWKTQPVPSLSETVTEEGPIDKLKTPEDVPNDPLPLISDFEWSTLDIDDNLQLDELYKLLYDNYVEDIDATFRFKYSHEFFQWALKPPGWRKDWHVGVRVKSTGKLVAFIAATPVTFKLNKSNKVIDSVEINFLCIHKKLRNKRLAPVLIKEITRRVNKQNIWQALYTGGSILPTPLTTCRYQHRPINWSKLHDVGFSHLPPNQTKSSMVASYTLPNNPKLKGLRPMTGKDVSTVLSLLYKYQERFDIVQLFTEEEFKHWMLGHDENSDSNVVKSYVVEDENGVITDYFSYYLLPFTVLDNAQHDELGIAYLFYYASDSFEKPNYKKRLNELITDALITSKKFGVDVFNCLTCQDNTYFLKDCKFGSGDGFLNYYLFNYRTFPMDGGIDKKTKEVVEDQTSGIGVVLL
Description: Recombinant Candida albicans and human NMTs were expressed and purified from E. coli using previously described protocols. [D. A. Towler et al, Proc. Natl. Acad. Sci. USA, 84, 2707-2712 (1987); R. C. Weigand et al, J. Biol. Chem., 267, 8591-8598 (1992); R. J. Duronio et al, Proc. Natl. Acad. Sci. USA, 89, 4129-4133 (1992)] The ability of compounds to inhibit Candida NMT enzymatic activity was assessed using a radiochemical HPLC end-point assay as described previously for Saccharomyces cerevisiae and human NMTs. [D. Towler et al, Proc. Natl. Acad. Sci. USA, 83, 2812-2816 (1986); W. J. Rocque et al, J. Biol. Chem., 268, 9964-9971 (1991)] The donor substrate [^3H]myristoyl-coenzyme A was enzymatically synthesized from [^3H]myristic acid (50 Ci/mmol, Amersham, Arlington Heights, Ill.) and coenzyme A (Fluka Chemical Corp., Ronkonkoma, N.Y.), and purified as described previously. [W. J. Rocque et al, J. Biol. Chem., 268, 9964-9971 (1991)] The peptide acceptor substrate GNAASARR-NH2 was prepared by solid-phase peptide synthesis using the t-Boc amino acid methodology, followed by HF treatment and reverse-phase HPLC purification. Inhibitor stock solutions were prepared at 22 mM in DMSO; the final concentration of DMSO in each assay was 0.5% (v/v). Inhibition assays were carried out by combining variable amounts of inhibitor or buffer with […] of [^3H]myristoyl-coenzyme A (1 μCi, 9.09 Ci/mmol) and 2.2 nmoles of GNAASARR-NH2 in a total volume of 60 μL of 0.2 M N-[2-hydroxy-ethyl]piperazine-N′-[2-ethanesulfonic acid], pH 7.4, 2 mM DL-dithiothreitol, 0.2 mM ethylene glycol-bis-(β-aminoethyl ether) N,N,N′,N′-tetraacetic acid, and initiating the reaction by the addition of 50 μL of a Candida NMT solution (7-12 ng/50 μL). Assays with human NMT were identical except that they used 60-75 ng/50 μL of enzyme solution and 0.22 nmoles of GNAASARR-NH2. The reaction was quenched after 10 minutes at 24° C. by the addition of ice-cold MeOH, and the reaction products were separated and measured using C4 reverse-phase HPLC (Vydac 214TP10415; Separations Group, Hesperia, Calif.) and in-line scintillation counting using a Radiomatic A250 (Packard Instruments, Downers Grove, Ill.) and Ecolite(+) (ICN Biomedical, Costa Mesa, Calif.) as the scintillant. Selectivity was determined by calculating the ratio of the IC50 against human NMT to the IC50 against C. albicans NMT.

[2] = test system: C. albicans Arf N-myristoylation; test: Gel shift assay for degree of N-myristoylation of Arf in C. albicans cultures; format: cell-based, Candida albicans; settings: 200 μM, 24° C., strain MONCA105; for reduction in Arf N-myristoylation: 2 h
Description: N-myristoylation of C. albicans ADP ribosylation factor (Arf), produces a change in its electrophoretic mobility during SDS-polyacrylamide gel electrophoresis. The acylated species migrates more rapidly than the nonmyristoylated species [J. K. Lodge et al, J. Biol. Chem., 269, 2996-3009 (1994)].
Based on these findings, acylation of C. albicans Arf, measured using this protein gel shift assay, was used to define the effects of peptide analog inhibitors of C. albicans NMT on the efficiency of protein N-myristoylation in cultures of this fungal pathogen.
The assay was performed as follows. A single colony of Candida albicans strain MONCA105 NMT, [R. A Weinberg et al, Mol. Micro., in press, (1995)] was innoculated into YPD medium (YPD=1% yeast extract, 2% peptone, 2% dextrose). Cultures were shaken at 24° C. for 12-16 h. Cells were recovered by centrifugation, washed 3 times with sterile PBS, pH 7.4 and resuspended in YPD at an OD600 of 1.0-1.5. Fifty microliters of a 20 mM stock solution of peptide analog (prepared in sterile deionized H2O) were added to a sterile polypropylene tube containing 4.5 mL of fresh YPD medium. Five hundred microliters of the C. albicans culture was then added to the tubes. Controls consisted of no added peptide analog (i.e. water alone).The tubes were incubated at 24° C. with vigorous shaking for 2 hr or 4 hr. For each experiment, duplicate tubes were assayed for each condition and at each time point. Cells were recovered by centrifugation, resuspended in 200 μL of Lysis Buffer (0.125M Tris-HCl, pH 6.8/4% SDS), and transferred to microfuge tubes containing 200 μL of glass beads (bead diameter=425-600 μm, Sigma).The slurry was vortexed 3 times for 1 min each. Between each cycle of vortexing, the tubes were placed on ice for 1 min. The mixture was then placed in a boiling water bath for 10 min, vortexed once again for 1 min and subsequently spun at 10,000×g for 2 min. The cleared supernatant fraction was removed, spun again at 10,000×g for 5 min and the total protein concentration determined. […]

Cc1nccn1CCCCc1ccc(CC(=O)N[C@@H](CO)C(=O)N[C@@H](CCCCN)C(=O)N[C@@H](CC2CCCCC2)C(=O)O)cc1 [Example 2, L-Alanine, 3-cyclohexyl-N-[N^2-[N-[[4-[4-(2-Methyl-1H-imidazol-1-yl)butyl]phenyl]acetyl]-L-seryl]-L-lysyl]-, bis-trifluoroacetate]
IC50 ([1]; Table V): 1.4 µM | Selectivity ([1]; ratio of IC50 against human NMT to IC50 against C. albicans NMT): 560 | reduction in Arf N-myristoylation [2]: ~10%

Cc1nccn1CCCCc1ccc(CC(=O)N[C@H](CO)C(=O)N[C@H](CCCCN)C(=O)N[C@H](CC2CCCCC2)C(=O)O)cc1 [Comparator Compound A, D-Alanine, 3-cyclohexyl-N-[N^2-[N-[[4-[4-(2-methyl-1H-imidazol-1-yl)butyl]phenyl]acetyl]-D-seryl]-D-lysyl]-, bis-trifluoroacetate]
IC50 ([1]; Comparator Compound A table): > 1000 µM | inhibition of purified C. albicans Nmt in vitro ([1]; result in words): not an inhibitor | reduction in Arf N-myristoylation [2]: no detectable reduction | reduction of Arf acylation ([2]; 4 h): no detectable reduction
